From BigSolDB 2.1

CC(=O)Oc1ccc(C2CC(=O)c3c(OC(C)=O)cc(OC(C)=O)cc3O2)cc1 (stereo not given)
solubility (mole fraction)
Conditions	278.2 K	288.2 K	298.2 K	308.2 K	318.2 K
in 2-butoxyethanol	0.0018	0.00253	0.00337	0.00476	0.00712
in 2-methoxyethanol	0.00836	0.0108	0.0174	0.0235	0.0356
in 2-propoxyethanol	0.00485	0.00629	0.00775	0.00887	0.0116
in THF	0.0413	0.0483	0.058	0.0732	0.0902
in acetone	0.0759	0.0869	0.11	0.129	0.166
in ethanol	0.000721	0.000931	0.00132	0.00175	0.00239
in ethyl acetate	0.022	0.034	0.045	0.0714	0.103
in isopropanol	0.000289	0.000426	0.000667	0.00102	0.00152
in methanol	0.00122	0.00155	0.00217	0.00289	0.00407
in n-butanol	0.000228	0.000353	0.000491	0.000752	0.00106
in n-hexanol	1.8e-05	2.4e-05	3e-05	4.6e-05	6.4e-05
in n-pentanol	0.000249	0.000402	0.000556	0.00101	0.00141
in n-propanol	0.000649	0.000873	0.00127	0.00165	0.00245
in sec-butanol	0.000216	0.000372	0.000507	0.000824	0.00122
